Experimental data: US20070191396A1, “Fungicidal mixtures” (BASF Aktiengesellschaft, priority 2004, published 2007)

Tested on: Pyrenophora teres
Experiment: Activity against net blotch of barley caused by Pyrenophora teres, 1 day protective application
Format: in vivo
Details: individual active compound, barley seedlings "Hanna", assessed after 6 days
Protocol: The active compounds, separately, were prepared as a stock solution comprising 25 mg of active compound which was made up to 10 ml using a mixture of acetone and/or DMSO and the emulsifier Uniperol® EL (wetting agent having an emulsifying and dispersing action based on ethoxylated alkylphenols) in a ratio by volume of solvent/emulsifier of 99:1. The mixture was then made up to 100 ml with water. The active compounds or mixtures were diluted or mixed with water to the stated concentration.
Activity against net blotch of barley caused by Pyrenophora teres, 1 day protective application
Leaves of potted barley seedlings of the “Hanna” cultivar were sprayed to runoff point with an aqueous suspension having the concentration of active compound stated below. 24 hours after the spray coating had dried on, the test plants were inoculated with an aqueous spore suspension of Pyrenophora [syn. Drechslera] teres, the net blotch pathogen. […] After 6 days, the extent of the development of the disease was determined visually in % infection of the total leaf area.
The visually determined percentages of infected leaf areas were converted into efficacies in % of the untreated control:
The efficacy (E) is calculated as follows using Abbot's formula: E=(1−[…] )·100 α corresponds to the fungal infection of the treated plants in % and β corresponds to the fungal infection of the untreated (control) plants in % […]

SMILES: CC1CCN(c2c(-c3c(F)cc(F)cc3F)c(Cl)nc3ncnn23)CC1 [I, 5-chloro-7-(4-methylpiperidin-1-yl)-6-(2,4,6-trifluorophenyl)[1,2,4]triazolo[1,5-a]pyrimidine]
- Efficacy in % of the untreated control (1.25 ppm in the spray liquor): 55 % of the untreated control
- Efficacy in % of the untreated control (5 ppm in the spray liquor): 78 % of the untreated control
